Test results from patent publication US20170027958A1, “FULVESTRANT COMPOSITIONS” (THEMIS MEDICARE LIMITED, priority 2013, published 2017).
Where two headings read alike, the source gives them in different places.

Experiment: Solubility studies of fulvestrant in solvents, co-solvents, oils and release rate modifiers
Format: physicochemical
Conditions: for solubility: read-out: Fulvestrant solubility achieved
Experimental: Solubility studies of fulvestrant were performed using various combinations of solvent, co-solvents, oils and release rate modifiers. The resultant data are shown herein below Table 1.

C[C@]12CC[C@@H]3c4ccc(O)cc4C[C@@H](CCCCCCCCC[S+]([O-])CCCC(F)(F)C(F)(F)F)[C@H]3[C@@H]1CC[C@@H]2O (stereo partly drawn) [Fulvestrant, 7-alpha-[9-[(4,4,5,5,5-pentafluoropentyl)sulfinyl]nonyl]estra-1,3,5(10)-triene-3,17-beta-diol]
Fulvestrant solubility achieved (Benzyl alcohol (4 v/v %):Diethylene glycol monoethyl ether (q.s. to 1.7 mL)): 300 mg/1.7 mL
solubility (Benzyl alcohol (10 v/v %):Castor oil (50 v/v %):Diethylene glycol monoethyl ether (q.s. to 1 mL)): 151 mg/mL
solubility (benzyl alcohol / diethylene glycol monoethyl ether mixture, Benzyl alcohol (2 v/v %):Diethylene glycol monoethyl ether (q.s. to 1 mL)): 200 mg/mL
